Assays:
Format in all cases: cell-based, human
H1299 cells = experiment: Alamar Blue proliferation assay, H1299
Source text: (§1) The inventors assessed the therapeutic effect of hsa-miR-147 for lung cancer by using 12 individual lung cancer cell lines. To measure cellular proliferation of lung cancer cells, the following parental non-small cell lung cancer (NSCLC) cells were used: cells derived from lung adenocarcinoma (A549, H1299, H522, H838, Calu-3, HCC827, HCC2935), cells derived from lung squamous cell carcinoma (H520, H226), cells derived from lung adenosquamous cell carcinoma (H596), cells derived from lung bronchioalveolar carcinoma (H1650), and cells derived from lung large cell carcinoma (H460). In addition to these parental cell lines, highly metastatic NSCLC cells were used that stably express the firefly luciferase gene: A549-luc, H460-luc, HCC827-luc, H1650-luc, H441-luc. Unlike the parental cell lines, these metastatic cells readily migrate to distant sites of the test animal and form metastases upon subcutaneous, orthotopic, or intravenous injection. Synthetic hsa-miR-147 or negative control miRNA was delivered via lipid-based transfection into A549, H1299, H522, H838, Calu-3, HCC827, HCC2935, H520, H596, H1650, H460, A549-luc, H460-luc, HCC827-luc, H1650-luc, H441-luc cells and via electroporation into H226 cells. Lipid-based reverse transfection was carried out in triplicates according to a published protocol and the following parameters: 5000-12000 cells per 96 well, 0.1-0.2 μl lipofectamine-2000 (Invitrogen, Carlsbad, Calif.) in 20 μl OptiMEM (Invitrogen), […] final concentration of miRNA in 100 μl (Ovcharenko et al., 2005). Electroporation of H226 cells was carried out using the BioRad GenePulserXcell™ instrument with the following settings: 5×10^6 cells with 5 μg miRNA in 200 μl OptiMEM, square wave pulse at 250 V for 5 ms. […]
The inventors determined sensitivity and specificity of hsa-miR-147 by administering hsa-miR-147 or negative control miRNA at increasing concentrations, ranging from 0 pM to 3 nM. Delivery of miRNA and cellular proliferation of A549 and H1299 cells was assessed as described above. […]

Calu-3 cells = experiment: Alamar Blue proliferation assay, Calu-3
Source text: as §1, with “ms. Electroporated H226 cells were seeded at 7000 cells per 96-well in a total volume of 100 μl. All cells except for Calu-3 cells were harvested 72 hours post transfection or electroporation for assessment of cellular proliferation. Calu-3 cells were harvested 10 days post transfection.” for “ms.”

H520 cells = experiment: Alamar Blue proliferation assay, H520
Source text: as §1, with “ms. Electroporated H226 cells were seeded at 7000 cells per 96-well in a total volume of 100 μl. All cells except for Calu-3 cells were harvested 72 hours post transfection or electroporation for assessment of cellular proliferation. Calu-3 cells were harvested 10 days post transfection.” for “ms.”

H1650 cells = experiment: Alamar Blue proliferation assay, H1650
Source text: as §1, with “ms. Electroporated H226 cells were seeded at 7000 cells per 96-well in a total volume of 100 μl. All cells except for Calu-3 cells were harvested 72 hours post transfection or electroporation for assessment of cellular proliferation. Calu-3 cells were harvested 10 days post transfection.” for “ms.”

HCC827-luc cells = experiment: Alamar Blue proliferation assay, HCC827-luc
Source text: as §1, with “ms. Electroporated H226 cells were seeded at 7000 cells per 96-well in a total volume of 100 μl. All cells except for Calu-3 cells were harvested 72 hours post transfection or electroporation for assessment of cellular proliferation. Calu-3 cells were harvested 10 days post transfection.” for “ms.”

H460 lung cancer cells = experiment: Alamar Blue proliferation assay of pair-wise miRNA combinations; conditions: for % proliferation: H460 cells, normalized to 600 pM negative control (NC) miRNA
Source text: miRNAs function in multiple pathways controlling multiple cellular processes. Cancer cells frequently show aberrations in several different pathways which determine their oncogenic properties. Therefore, combinations of multiple miRNAs may provide a better therapeutic benefit rather than a single miRNA. The inventors assessed the efficacy of pair-wise miRNA combinations, administering hsa-miR-147 concurrently with hsa-miR-124a, hsa-miR-126, hsa-let7b, hsa-let-7c or hsa-let7g. H460 lung cancer cells were transiently reverse transfected in triplicates with each miRNA at a final concentration of 300 pM, totaling in 600 pM of oligonucleotide. As a negative control, 600 pM of negative control miRNA (pre-miR NC#2, Ambion) was used. To correlate the effect of various combinations with the effect of the sole miRNA, each miRNA at 300 pM was also combined with 300 pM negative control miRNA. Reverse transfection was carried using the following parameters: 7000 cells per 96 well, 0.15 μl lipofectamine2000 (Invitrogen) in 20 μl OptiMEM (Invitrogen), 100 μl total transfection volume. […] Cells were harvested 72 hours after transfection and subjected to Alamar Blue assays (Invitrogen). Alamar Blue values were normalized to the ones obtained from cells treated with 600 pM negative control miRNA. Data are expressed as % proliferation relative to negative control miRNA-treated cells.
As shown in FIG. 4 and Table 9, transfection of 300 pM hsa-miR-147 reduces proliferation of H460 cells by 23%. […] Additive activity of pair-wise combinations (e.g., hsa-miR-147 plus hsa-miR-124a) is defined as an activity that is greater than the sole activity of each miRNA (e.g., activity of hsa-miR-147 plus hsa-miR-124a>hsa-miR-147 plus NC AND activity of hsa-miR-147 plus hsa-miR-124a>hsa-miR-124a plus NC). Synergistic activity of pair-wise combinations is defined as an activity that is greater than the sum of the sole activity of each miRNA (e.g., activity of hsa-miR-147 plus hsa-miR-124a>SUM [activity of hsa-miR-147 plus NC AND activity of hsa-miR-124a plus NC]). […]

[1] = etoposide 10 μM, normalized to negative control miRNA (100%)
[2] = etoposide 50 μM, normalized to negative control miRNA (100%)
[3] = 30 nM, normalized to negative control miRNA (100% proliferation)

COc1cc([C@@H]2c3cc4c(cc3[C@@H](O[C@@H]3O[C@@H]5CO[C@@H](C)O[C@H]5[C@H](O)[C@H]3O)[C@H]3COC(=O)[C@H]23)OCO4)cc(OC)c1O [Etoposide, etoposide]
% proliferation (H1299 cells; [1]): 79.65% | % proliferation (H1299 cells; [2]): 54.38% | % proliferation (Calu-3 cells; [1]): 20.81% | % proliferation (Calu-3 cells; [2]): 13.53% | % proliferation (H520 cells; [1]): 66.80% | % proliferation (H520 cells; [2]): 48.53% | % proliferation (H1650 cells; [1]): 90.98% | % proliferation (H1650 cells; [2]): 60.31% | % proliferation (HCC827-luc cells; [1]): 21.92% | % proliferation (HCC827-luc cells; [2]): 0.75% | % proliferation (H460 lung cancer cells; etoposide 10 μM): 20.19% | % proliferation (H460 lung cancer cells; etoposide 50 μM): 14.94%

hsa-miR-147: Synthetic pre-miR-147 (Ambion AM17100; Dharmacon in vivo); mature sequence GUGUGUGGAAAUGCUUCUGC, MIMAT0000251, SEQ ID NO:114 (synthetic pre-miR (Ambion/Dharmacon), chemistry not given here; listed as Homo sapiens)
% proliferation (H1299 cells; [3]): 78.22% | % proliferation (Calu-3 cells; [3]): 37.62% | % proliferation (H520 cells; [3]): 95.64% | % proliferation (H1650 cells; [3]): 84.61% | % proliferation (HCC827-luc cells; [3]): 61.15% | reduction of proliferation of H460 cells (H460 lung cancer cells; 300 pM single miRNA plus 300 pM negative control miRNA, 72 hours, vs 600 pM negative control miRNA): 23%

Source: US20090131356A1, “miR-15, miR-26, miR-31, miR-145, miR-147, miR-188, miR-215, miR-216, miR-331, mmu-miR-292-3P REGULATED GENES AND PATHWAYS AS TARGETS FOR THERAPEUTIC INTERVENTION” (ASURAGEN, INC., priority 2006, published 2009)
